According to US10844049B2, “GLP-1R agonists and uses thereof” (QILU REGOR THERAPEUTICS INC., priority 2018, dated 2020):

Target: GLP1R (Homo sapiens, UniProt P43220)
Assay: GLP1R cAMP HTRF assay, HEK293/GLP-1R/CRE/Luc (HEK293T cells)
Type: cell-based
Details: read-out: EC50
Method in brief: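 cAMP accumulation via HTRF after 30 min, 37 °C exposure of 1000 receptor-expressing cells/well to compound (0.5% DMSO final) in IBMX (500 μM)/0.1% BSA DPBS.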

Sequence of GLP1R (P43220 24-463): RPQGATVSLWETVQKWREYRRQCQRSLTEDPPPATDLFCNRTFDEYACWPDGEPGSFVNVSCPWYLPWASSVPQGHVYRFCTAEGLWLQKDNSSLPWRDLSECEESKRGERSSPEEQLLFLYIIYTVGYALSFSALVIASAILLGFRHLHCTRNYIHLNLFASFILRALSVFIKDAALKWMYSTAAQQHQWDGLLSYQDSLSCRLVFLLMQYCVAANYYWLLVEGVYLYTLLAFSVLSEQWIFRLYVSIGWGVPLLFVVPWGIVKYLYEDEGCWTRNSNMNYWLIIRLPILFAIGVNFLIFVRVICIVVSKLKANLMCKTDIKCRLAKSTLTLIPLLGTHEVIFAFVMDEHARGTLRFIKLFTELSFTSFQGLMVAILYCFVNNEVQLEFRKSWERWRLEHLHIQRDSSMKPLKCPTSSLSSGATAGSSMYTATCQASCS

Compound | EC50 [nM]
N#Cc1ccc(COc2cc(C3=CCN(Cc4nc5ccc(C(=O)O)cc5n4C[C@@H]4CCO4)CC3)ccc2F)c(F)c1 [Compound 204, (S)-2-((4-(3-((4-cyano-2-fluorobenzyl)oxy)-4-fluorophenyl)-3,6-dihydropyridin-1(2H)-yl)methyl)-1-(oxetan-2-ylmethyl)-1H-benzo[d]imidazole-6-carboxylic acid] | ≤ 15
O=C(O)c1ccc2nc(CN3CC=C(c4cccc(OCc5cc(F)cc(F)c5)n4)CC3)n(C[C@@H]3CCO3)c2c1 [Compound 142, (S)-2-((6-((3,5-difluorobenzyl)oxy)-3′,6′-dihydro-[2,4′-bipyridin]-1′(2′H)-yl)methyl)-1-(oxetan-2-ylmethyl)-1H-benzo[d]imidazole-6-carboxylic acid] | ≤ 150
Cc1c(C(=O)O)ccc2nc(CN3CC=C(c4cccc(OCc5ccc(Cl)cc5)n4)CC3)n(C[C@@H]3CCO3)c12 [Compound 110, (S)-2-((6-((4-chlorobenzyl)oxy)-3′,6′-dihydro-[2,4′-bipyridin]-1′(2′H)-yl)methyl)-7-methyl-1-(oxetan-2-ylmethyl)-1H-benzo[d]imidazole-6-carboxylic add] | ≤ 15
O=C(O)c1ccc2nc(CN3CCN(c4cc(F)cc(OCc5ccc(Cl)cc5F)c4)CC3)n(C[C@@H]3CCO3)c2c1 [Compound 185, (S)-2-((4-(3-((4-chloro-2-fluorobenzyl)oxy)-5-fluorophenyl)piperazin-1-yl)methyl)-1-(oxetan-2-ylmethyl)-1H-benzo[d]imidazole-6-carboxylic acid] | ≤ 15
O=C(O)c1ccc2nc(CN3CC=C(c4nc(OCc5ccc(Cl)cc5F)ncc4F)CC3)n(C[C@@H]3CCO3)c2c1 [Compound 126, (S)-2-((4-(2-(4-chloro-2-fluorobenzyloxy)-5-fluoropyrimidin-4-yl)-5,6-dihydropyridin-1(2H)-yl)methyl)-1-(oxetan-2-ylmethyl)-1H-benzo[d]imidazole-6-carboxylic acid] | ≤ 15
O=C(NO)c1ccc2nc(CN3CC=C(c4cccc(OCc5ccc(Cl)cc5F)n4)CC3)n(C[C@@H]3CCO3)c2c1 [Compound 174, (S)-2-((6-((4-chloro-2-fluorobenzyl)oxy)-5′,6′-dihydro-[2,4′-bipyridin]-1′(2′H)-yl)methyl)-N-hydroxy-1-(oxetan-2-ylmethyl)-1H-benzo[d]imidazole-6-carboxamide] | ≤ 15
O=C(O)c1ccc2nc(CN3CCC(n4c(=O)n(CCc5ccc(Cl)cc5F)c5ccccc54)CC3)n(C[C@@H]3CCO3)c2c1 [Compound 52, (S)-2-((4-(3-(4-chloro-2-fluorophenethyl)-2-oxo-2,3-dihydro-1 h-benzo[d]imidazol-1-yl)piperidin-1-yl)methyl)-1-(oxetan-2-ylmethyl)-1 h-benzo[d]imidazole-6-carboxylic acid] | > 1000
O=C(O)c1ccc2nc(CN3CCN(c4cccn(CCc5ccc(Cl)cc5F)c4=O)CC3)n(C[C@@H]3CCO3)c2c1 [Compound 8, (S)-2-((4-(1-(4-chloro-2-fluorophenethyl)-2-oxo-1,2-dihydropyridin-3-yl)piperazin-1-yl)methyl)-1-(oxetan-2-ylmethyl)-1h-benzo[d]imidazole-6-carboxylic acid] | > 1000
O=C(O)c1ccc2nc(CN3CC=C(c4ccnc(OCc5ccc(Cl)cc5F)c4)CC3)n(C[C@@H]3CCO3)c2c1 [Compound 31, (S)-2-((2′-((4-chloro-2-fluorobenzyl)oxy)-3,6-dihydro-[4,4′-bipyridin]-1(2H)-yl)methyl)-1-(oxetan-2-ylmethyl)-1H-benzo[d]imidazole-6-carboxylic add] | ≤ 1000
Cn1cnc2ccc(COc3cccc(C4=CCN(Cc5nc6ccc(C(=O)O)cc6n5C[C@@H]5CCO5)CC4)n3)cc21 [Compound 241, (S)-2-((6-((1-methyl-1H-benzo[d]imidazol-6-yl)methoxy)-3′,6′-dihydro-[2,4′-bipyridin]-(2′H)-yl)methyl)-1-(oxetan-2-ylmethyl)-1H-benzo[d]imidazole-6-carboxylic add] | ≤ 150
N#Cc1ccc(COc2cccc(N3CCN(Cc4nc5ccc(C(=O)O)nc5n4C[C@@H]4CCO4)CC3=O)n2)c(F)c1 [Compound 234, (S)-2-((4-(6-(4-cyano-2-fluorobenzyloxy)pyridin-2-yl)-3-oxopiperazin-1-yl)methyl)-3-(oxetan-2-ylmethyl)-3H-imidazo[4,5-b]pyridine-5-carboxylic acid] | ≤ 150
O=C(O)c1ccc2nc(CN3CC=C(c4cc(OCc5ccc(C#CC6CC6)cc5F)ccc4F)CC3)n(C[C@@H]3CCO3)c2c1 [Compound 208] | ≤ 150
O=C(O)c1ccc2nc(CN3CC=C(c4cccc(OCc5cccnc5)n4)CC3)n(C[C@@H]3CCO3)c2c1 [Compound 158] | ≤ 150
O=C(O)c1ccc2nc(CN3CC=C(n4cccc(OCc5ccc(Cl)cc5F)c4=O)CC3)n(C[C@@H]3CCO3)c2c1 [Compound 51, (S)-2-((4-(3-(4-chloro-2-fluorobenzyloxy)-2-oxopyridin-1(2H)-yl)-5,6-dihydropyridin-1(2H)-yl)methyl)-1-(oxetan-2-ylmethyl)-1 h-benzo[d]imidazole-6-carboxylic acid] | > 1000
(S)-2-((4-(3-((4-cyano-2-fluorobenzyl)oxy)-5-fluorophenyl)-5,6-dihydropyridin-1(2H)-yl)methyl)-1-(oxetan-2-ylmethyl)-1H-benzo[d]imidazole-6-carboxylic add [Compound 218] | ≤ 150
O=C(O)c1ccc2nc(CN3CC=C(c4cccc(OCc5ccc(-n6ccnn6)cc5)n4)CC3)n(C[C@@H]3CCO3)c2c1 [Compound 244, (S)-2-((6-((4-(1H-1,2,3-triazol-1-yl)benzyl)oxy)-3′,6′-dihydro-[2,4′-bipyridin]-1′(2′H)-yl)methyl)-1-(oxetan-2-ylmethyl)-1H-benzo[d]imidazole-6-carboxylic add] | ≤ 15
O=C(O)c1ccc2nc(CN3CC=C(c4cccc(OCc5ncc(C(F)(F)F)cc5F)n4)CC3)n(C[C@@H]3CCO3)c2c1 [Compound 149, (S)-2-((6-((3-fluoro-5-(trifluoromethyl)pyridin-2-yl)methoxy)-3′,6′-dihydro-[2H′-bipyridin]-1′(2′II)-yl)methyl)-1-(oxetan-2-ylmethyl)-1H-benzo[d]imidazole-6-carboxylic acid] | ≤ 15
O=C(O)c1ccc2nc(CN3CC=C(c4nccc(NCc5ccc(Cl)cc5F)n4)CC3)n(C[C@@H]3CCO3)c2c1 [Compound 124, (S)-2-((4-(4-((4-chloro-2-fluorobenzyl)amino)pyrimidin-2-yl)-5,6-dihydropyridin-1(2H)-yl)methyl)-1-(oxetan-2-ylmethyl)-1H-benzo[d]imidazole-6-carboxylic add] | ≤ 1000
O=C(O)c1ccc2nc(CN3CCC(N4CCc5ccc(-c6ccc(Cl)cc6F)cc5C4=O)CC3)n(C[C@@H]3CCO3)c2c1 [Compound 54, (S)-2-((4-(7-(4-chloro-2-fluorophenyl)-1-oxo-3,4-dihydroisoquinolin-2(1H)-yl)piperidin-1-yl)methyl)-1-(oxetan-2-ylmethyl)-1 h-benzo[d]imidazole-6-carboxylic acid] | > 1000
CCn1cnc(Cn2c(CN3CC=C(c4cccc(OCc5ccc(C#N)cc5F)n4)CC3)nc3ccc(C(=O)O)cc32)c1 [Compound 183, 2-((6-((4-cyano-2-fluorobenzyl)oxy)-3′,6′-dihydro-[2H′-bipyridin]-1′(2′H)-yl)methyl)-1-((1-ethyl-1H-imidazol-4-yl)methyl)-1H-benzo[d]imidazole-6-carboxylic acid] | ≤ 150
O=C(O)c1ccc2nc(CN3CC4CCC3CN4c3cccc(OCc4ccc(Cl)cc4F)n3)n(C[C@@H]3CCO3)c2c1 (stereo partly drawn) [Compound 17, 2-((5-(6-((4-chloro-2-fluorobenzyl)oxy)pyridin-2-yl)-2,5-diazabicyclo[2.2.2]octan-2-yl)methyl)-1-(((S)-oxetan-2-yl)methyl)-1 h-benzo[d]imidazole-6-carboxylic acid] | > 1000
O=C(O)c1ccc2nc(CN3CC=C(c4ccnc(OCc5ccc(F)cc5F)n4)CC3)n(C[C@@H]3CCO3)c2c1 [Compound 215, (S)-2-((4-(2-((2H-difluorobenzyl)oxy)pyrimidin-4-yl)-3,6-dihydropyridin-1(2H)-yl)methyl)-1-(oxetan-2-ylmethyl)-1H-benzo[d]imidazole-6-carboxylic acid] | ≤ 150
O=C(O)c1ccc2nc(CN3CC=C(c4cccc(OCc5ccc(Cl)cc5F)n4)CC3)n(Cc3ncco3)c2c1 [Compound 72, 2-((6-((4-chloro-2-fluorobenzyl)oxy)-3′,6′-dihydro-[2,4′-bipyridin]-1′(2′H)-yl)methyl)-1-(oxazol-2-ylmethyl)-1H-benzo[d]imidazole-6-carboxyli acid] | ≤ 15
O=C(O)c1ccc2nc(CN3CC=C(c4cccc(OCc5ccc(F)cc5F)n4)CC3)n(C[C@@H]3CCO3)c2c1 [Compound 141, (S)-2-((6-((2H-difluorobenzyl)oxy)-5′,6′-dihydro-[2,4′-bipyridin]-1′(2′H)-yl)methyl)-1-(oxetan-2-ylmethyl)-1H-benzo[d]imidazole-6-carboxylic add] | ≤ 15
O=C(O)c1ccc2nc(CN3CCC(c4ccc5ccn(Cc6ccc(Cl)cc6F)c5n4)CC3)n(C[C@@H]3CCO3)c2c1 [Compound 24, (S)-2-((4-(1-(4-chloro-2-fluorobenzyl)-1H-pyrrolo[2,3-b]pyridin-6-yl)piperidin-1-yl)methyl)-1-(oxetan-2-ylmethyl)-1H-benzo[d]imidazole-6-carboxylic add] | ≤ 150
O=C(O)c1ccc2nc(CN3CC=C(c4cccc(OCc5cnccc5C(F)(F)F)n4)CC3)n(C[C@@H]3CCO3)c2c1 [Compound 150, (S)-1-(oxetan-2-ylmethyl)-2-((6-((4-(trifluoromethyl)pyridin-3-yl)methoxy)-3′,6′-dihydro-[2,4′-bipyridin]-1′(2′H)-yl)methyl)-1H-benzo[d]imidazole-6-carboxylic add] | ≤ 1000
O=C(O)c1ccc2nc(CN3CC(=O)N(c4cccc(OCc5ccc(Cl)cc5F)n4)CC3=O)n(C[C@@H]3CCO3)c2c1 [Compound 168, (S)-2-((4-(6-(4-chloro-2-fluorobenzyloxy)pyridin-2-yl)-2,5-dioxopiperazin-1-yl)methyl)-1-(oxetan-2-ylmethyl)-1H-benzo[d]imidazole-6-carboxylic acid] | ≤ 15
